IC50 and MIC data for 19 compounds are collected here from patent US20210070747A1, “2(1H)-QUINOLINONE DERIVATIVE” (priority 2017, published 2021).

Each structure is given as a SMILES string. pIC50: −log10 of the molar value. Values after ≈ are worked out from the molar mass of the structure shown. Read-outs that look alike come from different tables or passages of the source.

In one assay the target is T1, E. coli DNA gyrase (Escherichia coli, UniProt P0AES6).
T1 construct: made in house; host or cells: E. coli BL21 (DE3)
Kind of assay: Test for evaluating the activity of inhibiting E. coli DNA gyrase enzyme (Method 2, supercoiling, recombinant gyrA/gyrB complex). The assay is classed as biochemical. In outline:
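Recombinant E. coli gyrA/gyrB complex (His-tagged, BL21(DE3)-expressed, Ni-NTA purified; 0.135 nmol/mL final) supercoiled relaxed pBR322 (1 ng/μL) with 0.5 mmol/L ATP in pH 8.0 Tris buffer, 60 min at room temperature. H19 stopped the reaction; supercoiled/relaxed ratio read at 485/535 nm, inhibition curves built from varying compound concentrations.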

Assay [1] concerns N. gonorrhoeae ATCC 49226. Kind of assay: Test for evaluating antibacterial activity (N. gonorrhoeae), broth microdilution MIC. The settings on record: Neisseria gonorrhoeae, ATCC49226; 35° C., 24 hours, gonococcal broth. The assay is classed as cell-based. As for the experimental part: Minimum inhibitory concentration (MIC) was measured using the broth microdilution method described below in accordance with a modification of the method of Geers et al. (Antimicrob. Agents. Chemother. (1989), 33, 233-234).
After sterilization, BD. Difco supplement C was added to give a final concentration of 1%, whereby a gonococcal broth was prepared.
Bacterial cells under test were cultured overnight on a chocolate II agar medium, scraped off and suspended at a concentration equivalent to McFarland 0.5 turbidity; the suspension thus obtained was diluted 5 folds to give a liquid inoculum. The inoculum (0.005 mL) was inoculated on a gonococcal broth containing the analyte compound and cultured at 35° C. for 24 hours. A minimum drug concentration at which no bacterial growth was macroscopically visible was designated MIC.
For orientation: Broth dilution looks for growth in wells or tubes with falling amounts of substance.

For the next assay, the system named is E. Coli ATCC 25922. Kind of assay: Test for evaluating antibacterial activity (E. coli), broth microdilution MIC. The assay is classed as cell-based. To be noted: Escherichia coli, ATCC25922; 35° C., 18 hours, cation-adjusted Mueller-Hinton medium. In outline: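 Broth microdilution per modified CLSI method in cation-adjusted Mueller-Hinton medium. Inoculum from overnight heart infusion agar growth, McFarland 0.5 suspension diluted 10-fold; incubation 35° C for 18 hours. MIC taken as lowest drug concentration with no visible growth.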

Where [2] appears, read: Method 2, read-out: E. Coli Gyrase supercoiling IC50.

Take `CNc1cc(F)cc2c(NCC3CNC3)c(C(=O)Nc3ccc(C(=O)O)cc3)c(=O)[nH]c12.O=CO` [Example 135, 4-{[4-{[(azetidine-3-yl)methyl]amino}-6-fluoro-8-(methylamino)-2-oxo-1,2-dihydroquinoline-3-carbonyl]amino}benzoic acid-formate]: on E. coli DNA gyrase, the pIC50 (commonly −log10 of the IC50, conventionally taken in molar units) was 9.18. Besides, the MIC (commonly the smallest concentration in the dilution series that meets the test's criterion for growth inhibition) in assay [1] was 0.12 µg/mL; against E. Coli ATCC 25922, over 16 µg/mL.

For `CNc1cc(F)cc2c(O)c(C(=O)Nc3cncnc3)c(=O)[nH]c12` [Example 138, 6-fluoro-4-hydroxy-8-(methylamino)-2-oxo-N-(pyrimidine-5-yl)-1,2-dihydroquinoline-3-carboxamide], the pIC50 at E. coli DNA gyrase (setting [2]) was 6.89. Also, the figures for the MIC (in assay [1]; in the assay on E. Coli ATCC 25922) were 0.06 µg/mL (≈ 0.182 µM) and 32 µg/mL (≈ 97.2 µM), respectively.

Turning to `CNc1cc(F)cc2cc(C(=O)Nc3ccc(-c4noc(=O)[nH]4)cc3)c(=O)[nH]c12` [Example 144, 6-fluoro-8-(methylamino)-2-oxo-N-[4-(5-oxo-4,5-dihydro-1,2,4-oxadiazole-3-yl)phenyl]-1,2-dihydroquinoline-3-carboxamide], at E. coli DNA gyrase (setting [2]), the pIC50 was 9.32. Besides, the MIC was 0.004 µg/mL (≈ 0.0101 µM) in assay [1] and over 8 µg/mL in the assay with E. Coli ATCC 25922.

On to `CNc1cc(F)cc2cc(C(=O)Nc3ccc(C(=O)NS(C)(=O)=O)cc3)c(=O)[nH]c12` [Example 145, 6-fluoro-N-{4-[(methanesulfonyl)carbamoyl]phenyl}-8-(methylamino)-2-oxo-1,2-dihydroquinoline-3-carboxamide], for which the negative-log IC50 (pIC50) on E. coli DNA gyrase (setting [2]) was 9.72. For the same compound, the MIC in assay [1] is 0.06 µg/mL (≈ 0.139 µM); against E. Coli ATCC 25922 it was over 32 µg/mL.

With `CNc1cc(F)cc2c(O)c(C(=O)Nc3ccc(C(=O)NS(C)(=O)=O)cc3)c(=O)[nH]c12` [Example 147, 6-Fluoro-4-hydroxy-N-[4-[(methanesulfonyl)carbamoyl]phenyl]-8-(methylamino)-2-oxo-1,2-dihydroquinoline-3-carboxamide], at E. coli DNA gyrase (setting [2]), the negative logarithm of the IC50 (pIC50) was 8.76. Besides, the minimum inhibitory concentration (MIC) is 0.008 µg/mL (≈ 0.0178 µM) in assay [1] and over 32 µg/mL in the assay with E. Coli ATCC 25922.

Take `CNc1cc(F)cc2cc(C(=O)Nc3ccc(-c4nnn[nH]4)cc3)c(=O)[nH]c12` [Example 149, 6-fluoro-8-(methylamino)-2-oxo-N-[4-(1H-tetrazole-5-yl)phenyl]-1,2-dihydroquinoline-3-carboxamide]: at E. coli DNA gyrase (setting [2]), the pIC50 is 9.26. Also, the MIC in assay [1] was 0.03 µg/mL (≈ 0.0791 µM); in the assay on E. Coli ATCC 25922 it was over 8 µg/mL.

Consider `CNc1cc(F)cc2c(O)c(C(=O)Nc3ccc(C(=N)N)cc3)c(=O)[nH]c12` [Example 150, N-(4-Carbamimidoylphenyl)-6-fluoro-4-hydroxy-8-(methylamino)-2-oxo-1,2-dihydroquinoline-3-carboxamide], for which, on E. coli DNA gyrase (setting [2]), the pIC50 was 7.05. In addition, the MIC in assay [1] was 0.03 µg/mL (≈ 0.0812 µM); against E. Coli ATCC 25922 it was over 16 µg/mL.

`CNc1cc(F)cc2cc(C(=O)Nc3ccc(S(C)(=N)=O)cc3)c(=O)[nH]c12` (stereo not drawn) [Example 151, 6-Fluoro-N-[4-(S-methanesulfonimidoyl)phenyl]-8-(methylamino)-2-oxo-1,2-dihydroquinoline-3-carboxamide]: the pIC50 at E. coli DNA gyrase was 7.67. For the same compound, the figures for the minimal inhibitory concentration (MIC) (in assay [1]; in the assay on E. Coli ATCC 25922) were 0.5 µg/mL (≈ 1.29 µM) and over 16 µg/mL, respectively.

`CNc1cc(F)cc2c(O)c(C(=O)Nc3ccc(C(=O)OC)cc3CN3CCCCC3)c(=O)[nH]c12` [Example 152, Methyl 4-[[6-fluoro-4-hydroxy-8-(methylamino)-2-oxo-1,2-dihydroquinoline-3-carbonyl]amino]-3-[(piperidin-1-yl)methyl]benzoate]: at E. coli DNA gyrase (setting [2]), the negative logarithm of the IC50 (pIC50) was 5.91. For the same compound, the MIC in assay [1] is 4 µg/mL (≈ 8.29 µM); in the assay on E. Coli ATCC 25922, over 16 µg/mL.

On to `CNc1cc(F)cc2cc(C(=O)Nc3ccc(NC(=O)NS(C)(=O)=O)cc3)c(=O)[nH]c12` [Example 154, 6-fluoro-N-(4-{[(methanesulfonyl)carbamoyl]amino}phenyl)-8-(methylamino)-2-oxo-1,2-dihydroquinoline-3-carboxamide], for which the negative-log IC50 (pIC50) at E. coli DNA gyrase (setting [2]) was 8.01. In addition, the minimum inhibitory concentration (MIC) in assay [1] was 0.06 µg/mL (≈ 0.134 µM); in the assay on E. Coli ATCC 25922, over 16 µg/mL.

In the case of `CNc1cc(F)cc2c(O)c(C(=O)Nc3ccc(C(=O)O)cc3CN3CCOCC3)c(=O)[nH]c12` [Example 155, 4-[[6-Fluoro-4-hydroxy-8-(methylamino)-2-oxo-1,2-dihydroquinoline-3-carbonyl]amino]-3-[(morpholin-4-yl)methyl]benzoic Acid], on E. coli DNA gyrase (setting [2]), the negative-log IC50 (pIC50) was 6.96. In addition, the results for the MIC (in assay [1]; against E. Coli ATCC 25922) were 0.015 µg/mL (≈ 0.0319 µM) and over 32 µg/mL, respectively.

`CNc1cc(F)cc2c(O)c(C(=O)Nc3ccc(C(=O)O)cc3CN3CCC3)c(=O)[nH]c12.O=CO` [Example 156, 3-[(azetidine-1-yl)methyl]-4-{[6-fluoro-4-hydroxy-8-(methylamino)-2-oxo-1,2-dihydroquinoline-3-carbonyl]amino}benzoic acid-formate]: at E. coli DNA gyrase, the pIC50 is 7.87. For the same compound, the MIC in assay [1] turned out to be 0.5 µg/mL; against E. Coli ATCC 25922, 32 µg/mL.

Regarding `CNc1cc(F)cc2c(O)c(C(=O)Nc3ccc(C(=O)O)cc3CN3CCCC3)c(=O)[nH]c12.O=CO` [Example 157, 4-{[6-fluoro-4-hydroxy-8-(methylamino)-2-oxo-1,2-dihydroquinoline-3-carbonyl]amino}-3-[(pyrrolidine-1-yl)methyl]benzoic acid-formate], on E. coli DNA gyrase, the negative logarithm of the IC50 (pIC50) is 8.25. For the same compound, the minimum inhibitory concentration (MIC) in assay [1] stood at 0.12 µg/mL; against E. Coli ATCC 25922, 16 µg/mL.

Take `CNc1cc(F)cc2cc(C(=O)Nc3ccc(C(O)C(N)=O)cc3)c(=O)[nH]c12` (stereo not drawn) [Example 158, N-[4-(2-amino-1-hydroxy-2-oxoethyl)phenyl]-6-fluoro-8-(methylamino)-2-oxo-1,2-dihydroquinoline-3-carboxamide]: the negative logarithm of the IC50 (pIC50) at E. coli DNA gyrase (setting [2]) was 8.11. The MIC in assay [1] is 0.03 µg/mL (≈ 0.0781 µM); against E. Coli ATCC 25922, over 16 µg/mL.

For `CNc1cc(F)cc2cc(C(=O)Nc3ccc(C4OC(=O)NC4=O)cc3)c(=O)[nH]c12` (stereo not drawn) [Example 159, N-[4-(2,4-Dioxo-1,3-oxazolidin-5-yl)phenyl]-6-fluoro-8-(methylamino)-2-oxo-1,2-dihydroquinoline-3-carboxamide], at E. coli DNA gyrase (setting [2]), the pIC50 was 8.97. Further, the figures for the MIC (in assay [1]; against E. Coli ATCC 25922) were 0.002 µg/mL (≈ 0.00487 µM) and over 16 µg/mL, respectively.

Take `O=C(O)c1ccc(NC(=O)c2cc3cccc(O)c3[nH]c2=O)cc1` [Example 160, 4-[(8-Hydroxy-2-oxo-1,2-dihydroquinoline-3-carbonyl)amino]benzoic Acid]: the negative logarithm of the IC50 (pIC50) at E. coli DNA gyrase (setting [2]) was 4.93. Besides, the results for the MIC (in assay [1]; against E. Coli ATCC 25922) were over 4 µg/mL and over 32 µg/mL, respectively.

As for `CCc1cccc2cc(C(=O)Nc3ccc(C(=O)O)cc3)c(=O)[nH]c12` [Example 161, 4-[(8-ethyl-2-oxo-1,2-dihydroquinoline-3-carbonyl)amino]benzoic acid], the pIC50 on E. coli DNA gyrase (setting [2]) was 5.65. The MIC in assay [1] is over 4 µg/mL; with E. Coli ATCC 25922 it was over 32 µg/mL.

For the compound `CNc1cc(F)cc2cc(C(=O)Oc3ccc(C(=O)O)cc3)c(=O)[nH]c12` [Example 162, 4-{[6-fluoro-8-(methylamino)-2-oxo-1,2-dihydroquinoline-3-carbonyl]oxy}benzoic acid], the negative logarithm of the IC50 (pIC50) at E. coli DNA gyrase (setting [2]) was 5.46. For the same compound, the MIC in assay [1] was over 1 µg/mL; against E. Coli ATCC 25922, over 32 µg/mL.

`CNc1cc(F)cc2cc(CNc3ccc(C(=O)O)cc3)c(=O)[nH]c12` [Example 163, 4-([[6-Fluoro-8-(methylamino)-2-oxo-1,2-dihydroquinoline-3-yl]methyl]amino)benzoic Acid]: the pIC50 at E. coli DNA gyrase (setting [2]) is 5.68. Moreover, the minimum inhibitory concentration (MIC) in assay [1] was over 1 µg/mL; with E. Coli ATCC 25922, over 32 µg/mL.
